Reference: ChEMBL document CHEMBL1144385, “Solid-phase synthesis and antibacterial evaluations of N-demethylvancomycin derivatives” (2005)
In brackets after ≈: the same amount, converted by molar mass.

Legend:
Type in all cases: functional
Staphylococcus aureus [1] = assay: Minimum inhibitory concentration against growth of […] aureus (ATCC 29213)
Enterococcus faecalis [2] = assay: Minimum inhibitory concentration against growth of Enterococcus faecalis (ATCC 29212)
Staphylococcus aureus [3] = assay: Minimum inhibitory concentration against growth of Methicillin resistant […] aureus
Enterococcus faecalis [4] = assay: Minimum inhibitory concentration against growth of vancomycin-resistant Enterococcus faecalis (ATCC 51299)

Work on CC(C)C[C@@H](N)C(=O)N[C@H]1C(=O)N[C@@H](CC(N)=O)C(=O)N[C@H]2C(=O)N[C@H]3C(=O)N[C@H](C(=O)N[C@H](C(=O)NCC(=O)O)c4cc(O)cc(O)c4-c4cc3ccc4O)[C@H](O)c3ccc(c(Cl)c3)Oc3cc2cc(c3O[C@@H]2O[C@@H](CO)[C@@H](O)[C@H](O)[C@@H]2O[C@H]2C[C@](C)(Nc3ccc(Cl)cc3)[C@H](O)[C@H](C)O2)Oc2ccc(cc2Cl)[C@H]1O yielded an MIC (Staphylococcus aureus [1]) of 5 µg/mL (≈ 3.12 µM), an MIC (Enterococcus faecalis [2]) of 10 µg/mL (≈ 6.24 µM) and an MIC (Staphylococcus aureus [3]) of 5 µg/mL (≈ 3.12 µM). The MIC (Enterococcus faecalis [4]) was greater than 10 µg/mL.
Molecule C/C=C/CN(C/C=C/C)[C@H](CC(C)C)C(=O)N[C@H]1C(=O)N[C@@H](CC(N)=O)C(=O)N[C@H]2C(=O)N[C@H]3C(=O)N[C@H](C(=O)N[C@H](C(=O)NCC(=O)O)c4cc(O)cc(O)c4-c4cc3ccc4O)[C@H](O)c3ccc(c(Cl)c3)Oc3cc2cc(c3O[C@@H]2O[C@@H](CO)[C@@H](O)[C@H](O)[C@@H]2O[C@H]2C[C@](C)(Nc3ccc(Cl)cc3)[C@H](O)[C@H](C)O2)Oc2ccc(cc2Cl)[C@H]1O has an MIC (Staphylococcus aureus [1]) greater than 10 µg/mL, an MIC (Enterococcus faecalis [2]) greater than 10 µg/mL and an MIC (Staphylococcus aureus [3]) greater than 10 µg/mL. The MIC (Enterococcus faecalis [4]) was greater than 10 µg/mL.
Work on CCC(CC)N[C@H](CC(C)C)C(=O)N[C@H]1C(=O)N[C@@H](CC(N)=O)C(=O)N[C@H]2C(=O)N[C@H]3C(=O)N[C@H](C(=O)N[C@H](C(=O)NCC(=O)O)c4cc(O)cc(O)c4-c4cc3ccc4O)[C@H](O)c3ccc(c(Cl)c3)Oc3cc2cc(c3O[C@@H]2O[C@@H](CO)[C@@H](O)[C@H](O)[C@@H]2O[C@H]2C[C@](C)(Nc3ccc(-c4ccccc4)cc3)[C@H](O)[C@H](C)O2)Oc2ccc(cc2Cl)[C@H]1O yielded an MIC (Staphylococcus aureus [1]) of 5 µg/mL (≈ 2.92 µM), an MIC (Enterococcus faecalis [2]) of 5 µg/mL (≈ 2.92 µM) and an MIC (Staphylococcus aureus [3]) of 2.5 µg/mL (≈ 1.46 µM). The MIC (Enterococcus faecalis [4]) was greater than 10 µg/mL.
Molecule CCCN(CCC)[C@H](CC(C)C)C(=O)N[C@H]1C(=O)N[C@@H](CC(N)=O)C(=O)N[C@H]2C(=O)N[C@H]3C(=O)N[C@H](C(=O)N[C@H](C(=O)NCC(=O)O)c4cc(O)cc(O)c4-c4cc3ccc4O)[C@H](O)c3ccc(c(Cl)c3)Oc3cc2cc(c3O[C@@H]2O[C@@H](CO)[C@@H](O)[C@H](O)[C@@H]2O[C@H]2C[C@](C)(Nc3ccc(-c4ccccc4)cc3)[C@H](O)[C@H](C)O2)Oc2ccc(cc2Cl)[C@H]1O has an MIC (Staphylococcus aureus [1]) of 5 µg/mL (≈ 2.89 µM), an MIC (Enterococcus faecalis [2]) greater than 10 µg/mL and an MIC (Staphylococcus aureus [3]) of 5 µg/mL (≈ 2.89 µM). For the same molecule, the MIC (Enterococcus faecalis [4]) was greater than 10 µg/mL.
In the case of CC(C)C[C@@H](N)C(=O)N[C@H]1C(=O)N[C@@H](CC(N)=O)C(=O)N[C@H]2C(=O)N[C@H]3C(=O)N[C@H](C(=O)N[C@H](C(=O)NCC(=O)O)c4cc(O)cc(O)c4-c4cc3ccc4O)[C@H](O)c3ccc(c(Cl)c3)Oc3cc2cc(c3O[C@@H]2O[C@@H](CO)[C@@H](O)[C@H](O)[C@@H]2O[C@H]2C[C@](C)(Nc3ccc(-c4ccccc4)cc3)[C@H](O)[C@H](C)O2)Oc2ccc(cc2Cl)[C@H]1O, the MIC (Staphylococcus aureus [1]) is reported as 5 µg/mL (≈ 3.04 µM), the MIC (Enterococcus faecalis [2]) is reported as 5 µg/mL (≈ 3.04 µM) and the MIC (Staphylococcus aureus [3]) is reported as 5 µg/mL (≈ 3.04 µM). It also gave an MIC (Enterococcus faecalis [4]) greater than 10 µg/mL.
Molecule CCCN[C@H](CC(C)C)C(=O)N[C@H]1C(=O)N[C@@H](CC(N)=O)C(=O)N[C@H]2C(=O)N[C@H]3C(=O)N[C@H](C(=O)N[C@H](C(=O)NCC(=O)O)c4cc(O)cc(O)c4-c4cc3ccc4O)[C@H](O)c3ccc(c(Cl)c3)Oc3cc2cc(c3O[C@@H]2O[C@@H](CO)[C@@H](O)[C@H](O)[C@@H]2O[C@H]2C[C@](C)(Nc3ccc(-c4ccccc4)cc3)[C@H](O)[C@H](C)O2)Oc2ccc(cc2Cl)[C@H]1O has an MIC (Staphylococcus aureus [1]) of 5 µg/mL (≈ 2.96 µM), an MIC (Enterococcus faecalis [2]) of 10 µg/mL (≈ 5.93 µM) and an MIC (Staphylococcus aureus [3]) of 5 µg/mL (≈ 2.96 µM). For the same molecule, the MIC (Enterococcus faecalis [4]) was greater than 10 µg/mL.
For CCCN(CCC)[C@H](CC(C)C)C(=O)N[C@H]1C(=O)N[C@@H](CC(N)=O)C(=O)N[C@H]2C(=O)N[C@H]3C(=O)N[C@H](C(=O)N[C@H](C(=O)NCC(=O)O)c4cc(O)cc(O)c4-c4cc3ccc4O)[C@H](O)c3ccc(c(Cl)c3)Oc3cc2cc(c3O[C@@H]2O[C@@H](CO)[C@@H](O)[C@H](O)[C@@H]2O[C@H]2C[C@](C)(Nc3ccc(Cl)cc3)[C@H](O)[C@H](C)O2)Oc2ccc(cc2Cl)[C@H]1O, the MIC (Staphylococcus aureus [1]) was 5 µg/mL (≈ 2.96 µM), the MIC (Enterococcus faecalis [2]) was greater than 10 µg/mL and the MIC (Staphylococcus aureus [3]) was 5 µg/mL (≈ 2.96 µM). It also gave an MIC (Enterococcus faecalis [4]) greater than 10 µg/mL.
CCC(CC)N[C@H](CC(C)C)C(=O)N[C@H]1C(=O)N[C@@H](CC(N)=O)C(=O)N[C@H]2C(=O)N[C@H]3C(=O)N[C@H](C(=O)N[C@H](C(=O)NCC(=O)O)c4cc(O)cc(O)c4-c4cc3ccc4O)[C@H](O)c3ccc(c(Cl)c3)Oc3cc2cc(c3O[C@@H]2O[C@@H](CO)[C@@H](O)[C@H](O)[C@@H]2OC2C[C@](C)(NC(CC)CC)[C@H](O)[C@H](C)O2)Oc2ccc(cc2Cl)[C@H]1O (single isomer, unassigned) gave an MIC (Staphylococcus aureus [1]) greater than 10 µg/mL, an MIC (Enterococcus faecalis [2]) greater than 10 µg/mL and an MIC (Staphylococcus aureus [3]) greater than 10 µg/mL. It also gave an MIC (Enterococcus faecalis [4]) greater than 10 µg/mL.
For CC(C)C[C@@H](N)C(=O)N[C@@H]1C(=O)N[C@@H](CC(N)=O)C(=O)N[C@H]2C(=O)N[C@H]3C(=O)N[C@H](C(=O)N[C@H](C(=O)O)c4cc(O)cc(O)c4-c4cc3ccc4O)[C@H](O)c3ccc(c(Cl)c3)Oc3cc2cc(c3O[C@@H]2O[C@H](CO)[C@@H](O)[C@H](O)[C@H]2O[C@H]2C[C@](C)(N)C(O)[C@H](C)O2)Oc2ccc(cc2Cl)[C@H]1O (stereo not given in full) [DEMETHYLVANCOMYCIN], the MIC (Staphylococcus aureus [1]) was less than 0.6 µg/mL, the MIC (Enterococcus faecalis [2]) was 2.5 µg/mL (≈ 1.74 µM) and the MIC (Staphylococcus aureus [3]) was less than 0.6 µg/mL. It also gave an MIC (Enterococcus faecalis [4]) greater than 10 µg/mL.
CN[C@H](CC(C)C)C(=O)N[C@H]1C(=O)N[C@@H](CC(N)=O)C(=O)N[C@H]2C(=O)N[C@H]3C(=O)N[C@H](C(=O)N[C@H](C(=O)O)c4cc(O)cc(O)c4-c4cc3ccc4O)[C@H](O)c3ccc(c(Cl)c3)Oc3cc2cc(c3O[C@@H]2O[C@H](CO)[C@@H](O)[C@H](O)[C@H]2O[C@H]2C[C@](C)(N)[C@H](O)[C@H](C)O2)Oc2ccc(cc2Cl)[C@H]1O [VANCOMYCIN] was tested, and the MIC (Staphylococcus aureus [1]) was 0.62 µg/mL (≈ 0.428 µM), the MIC (Enterococcus faecalis [2]) was 2.5 µg/mL (≈ 1.73 µM) and the MIC (Staphylococcus aureus [3]) was 1.25 µg/mL (≈ 0.863 µM). It also gave an MIC (Enterococcus faecalis [4]) greater than 10 µg/mL.
